What was measured:
Experiment in all cases: biochemical
AAK1 = AAK1 (Homo sapiens, UniProt Q2M2I8); design: kinase domain; Thermal shift assay (DSF, SYPRO Orange), 2 uM kinase domain, mean delta Tm of triplicates versus DMSO; conditions: for ΔTm at 12.5 µM: read-out: AAK1
Protocol: (§1) All measurements were performed in triplicate and mean values were reported for all compounds (Table S1). […] However, NAKs are often omitted from selectivity panels, including commercial screens.

MPSK1 = molecular target: T1, MPSK1 (Homo sapiens, UniProt O75716); design: Thermal shift assay (DSF, SYPRO Orange), 2 uM kinase domain, mean delta Tm of triplicates versus DMSO; conditions: for ΔTm at 12.5 µM: read-out: MPSK1
T1 construct: gene STK16; catalytic domain-containing construct
T1 sequence (O75716 whole entry, the tested form may be a part): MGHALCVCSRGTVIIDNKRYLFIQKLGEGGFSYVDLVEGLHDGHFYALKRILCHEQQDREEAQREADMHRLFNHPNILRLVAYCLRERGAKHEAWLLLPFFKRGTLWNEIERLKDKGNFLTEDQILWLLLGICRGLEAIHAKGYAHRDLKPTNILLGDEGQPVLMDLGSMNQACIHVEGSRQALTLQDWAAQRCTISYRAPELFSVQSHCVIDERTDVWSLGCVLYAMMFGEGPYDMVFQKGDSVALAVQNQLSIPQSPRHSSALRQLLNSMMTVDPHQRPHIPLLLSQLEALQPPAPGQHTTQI
Protocol: as §1

BIKE = molecular target: T2, BIKE (Homo sapiens, UniProt Q9NSY1); design: Thermal shift assay (DSF, SYPRO Orange), 2 uM kinase domain, mean delta Tm of triplicates versus DMSO; conditions: read-out: BIKE
T2 construct: gene BMP2K; catalytic domain-containing construct
T2 sequence (Q9NSY1 whole entry, the tested form may be a part): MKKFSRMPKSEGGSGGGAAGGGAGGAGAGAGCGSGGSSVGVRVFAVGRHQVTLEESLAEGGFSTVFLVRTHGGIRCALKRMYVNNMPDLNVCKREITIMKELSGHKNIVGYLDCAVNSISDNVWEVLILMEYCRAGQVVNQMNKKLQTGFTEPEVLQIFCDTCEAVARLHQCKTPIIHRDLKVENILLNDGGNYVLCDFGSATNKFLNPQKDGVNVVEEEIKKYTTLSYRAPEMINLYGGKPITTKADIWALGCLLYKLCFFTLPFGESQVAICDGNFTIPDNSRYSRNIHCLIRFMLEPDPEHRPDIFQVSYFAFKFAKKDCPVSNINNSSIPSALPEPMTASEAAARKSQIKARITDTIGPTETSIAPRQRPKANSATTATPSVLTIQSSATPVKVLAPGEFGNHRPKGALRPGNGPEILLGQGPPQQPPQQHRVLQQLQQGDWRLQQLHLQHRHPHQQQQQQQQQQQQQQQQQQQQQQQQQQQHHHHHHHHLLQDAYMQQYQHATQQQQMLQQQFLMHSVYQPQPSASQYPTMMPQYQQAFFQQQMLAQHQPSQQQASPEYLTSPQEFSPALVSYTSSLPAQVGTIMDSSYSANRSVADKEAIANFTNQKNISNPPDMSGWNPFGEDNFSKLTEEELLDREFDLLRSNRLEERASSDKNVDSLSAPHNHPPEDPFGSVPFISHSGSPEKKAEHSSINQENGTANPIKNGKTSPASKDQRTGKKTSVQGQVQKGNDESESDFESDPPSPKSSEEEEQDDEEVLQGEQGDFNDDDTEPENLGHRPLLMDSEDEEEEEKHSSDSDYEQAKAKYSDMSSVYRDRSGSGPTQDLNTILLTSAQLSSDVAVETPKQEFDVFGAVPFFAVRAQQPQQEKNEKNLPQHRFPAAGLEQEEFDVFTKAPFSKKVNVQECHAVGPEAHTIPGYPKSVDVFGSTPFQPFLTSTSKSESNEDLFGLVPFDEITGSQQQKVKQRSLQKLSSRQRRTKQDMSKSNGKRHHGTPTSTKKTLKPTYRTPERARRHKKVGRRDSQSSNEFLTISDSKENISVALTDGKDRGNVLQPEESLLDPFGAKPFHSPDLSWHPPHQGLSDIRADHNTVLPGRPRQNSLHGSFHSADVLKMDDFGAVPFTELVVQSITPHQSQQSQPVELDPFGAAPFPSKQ
Protocol: as §1

GAK = molecular target: T3, GAK (Homo sapiens, UniProt O14976); design: Thermal shift assay (DSF, SYPRO Orange), 2 uM kinase domain, mean delta Tm of triplicates versus DMSO; conditions: for ΔTm at 12.5 µM: read-out: GAK
T3 construct: catalytic domain-containing construct
T3 sequence (O14976 1-1311): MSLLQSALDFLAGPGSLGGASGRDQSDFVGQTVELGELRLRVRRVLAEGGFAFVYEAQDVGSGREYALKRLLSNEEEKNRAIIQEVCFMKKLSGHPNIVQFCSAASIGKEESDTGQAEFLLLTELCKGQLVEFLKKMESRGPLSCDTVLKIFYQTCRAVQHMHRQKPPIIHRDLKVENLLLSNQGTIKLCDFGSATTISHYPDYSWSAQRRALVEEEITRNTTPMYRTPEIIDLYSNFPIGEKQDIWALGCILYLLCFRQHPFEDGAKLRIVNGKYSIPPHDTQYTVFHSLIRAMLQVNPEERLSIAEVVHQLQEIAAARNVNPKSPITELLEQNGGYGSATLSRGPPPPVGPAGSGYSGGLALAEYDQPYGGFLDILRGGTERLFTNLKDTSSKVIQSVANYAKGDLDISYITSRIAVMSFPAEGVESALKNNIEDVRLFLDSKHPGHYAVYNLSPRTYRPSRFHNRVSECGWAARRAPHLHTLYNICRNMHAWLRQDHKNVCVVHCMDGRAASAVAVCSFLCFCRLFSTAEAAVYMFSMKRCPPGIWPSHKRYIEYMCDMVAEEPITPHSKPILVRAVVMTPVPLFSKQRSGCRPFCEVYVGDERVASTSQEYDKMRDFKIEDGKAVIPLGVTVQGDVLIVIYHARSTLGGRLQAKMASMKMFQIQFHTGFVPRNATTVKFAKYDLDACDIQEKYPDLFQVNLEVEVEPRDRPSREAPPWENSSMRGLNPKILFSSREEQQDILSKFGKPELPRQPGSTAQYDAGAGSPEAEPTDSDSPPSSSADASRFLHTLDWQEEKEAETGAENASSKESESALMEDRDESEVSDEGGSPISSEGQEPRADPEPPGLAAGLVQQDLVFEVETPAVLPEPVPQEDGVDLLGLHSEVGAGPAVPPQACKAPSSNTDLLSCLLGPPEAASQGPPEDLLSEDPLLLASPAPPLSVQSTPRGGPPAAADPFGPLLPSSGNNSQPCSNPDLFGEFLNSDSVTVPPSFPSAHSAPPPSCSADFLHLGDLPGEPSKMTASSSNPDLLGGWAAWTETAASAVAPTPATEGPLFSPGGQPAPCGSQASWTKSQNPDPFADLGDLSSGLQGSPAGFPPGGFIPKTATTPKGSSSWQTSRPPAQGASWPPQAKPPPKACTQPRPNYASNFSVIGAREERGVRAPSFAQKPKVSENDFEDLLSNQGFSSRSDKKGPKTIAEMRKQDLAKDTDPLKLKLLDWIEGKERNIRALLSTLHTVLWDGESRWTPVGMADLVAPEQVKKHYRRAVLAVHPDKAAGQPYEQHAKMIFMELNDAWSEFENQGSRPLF
Protocol: as §1

Sequence of AAK1 (Q2M2I8 27-365 limits assumed): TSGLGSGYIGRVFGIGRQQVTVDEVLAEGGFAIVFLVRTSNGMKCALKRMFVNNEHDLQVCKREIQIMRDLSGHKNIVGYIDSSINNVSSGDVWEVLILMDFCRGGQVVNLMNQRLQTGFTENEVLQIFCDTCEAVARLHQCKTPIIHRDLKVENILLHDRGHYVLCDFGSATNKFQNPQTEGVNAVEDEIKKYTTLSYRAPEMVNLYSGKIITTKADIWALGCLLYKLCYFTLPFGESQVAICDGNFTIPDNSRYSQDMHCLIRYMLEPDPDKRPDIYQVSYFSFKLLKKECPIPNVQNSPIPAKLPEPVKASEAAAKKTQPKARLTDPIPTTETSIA

| Structure (SMILES) | ΔTm at 12.5 µM (AAK1) [°C] | ΔTm at 12.5 µM (MPSK1) [°C] | ΔTm at 12.5 µM (BIKE) [°C] | ΔTm at 12.5 µM (GAK) [°C] | MPSK1 (MPSK1; 12.5 µM) [°C] | AAK1 (AAK1; 12.5 µM) [°C] | GAK (GAK; 12.5 µM) [°C] |
| --- | --- | --- | --- | --- | --- | --- | --- |
| Cn1c(Nc2ccc(C(F)(F)F)cc2)nc2cc(Oc3ccnc(-c4ncc(C(F)(F)F)[nH]4)c3)ccc21 [RAF265] | 1.45 | 1.67 | 1.07 | 7.37 | – | – | – |
| Cc1cnc(NC(=O)Nc2cc(Br)c(C)cc2OC[C@@H]2CNCCO2)cn1 [Rabusertib] | 1.55 | 2.49 | 3.04 | -0.263 | – | – | – |
| CC(C)(C)Cn1c(N)nc2ccc(-c3[nH]c(C(C)(C)C)nc3-c3ccc(F)cc3)nc21 [Ralimetinib] | 0.397 | 1.32 | 1.12 | 9.03 | – | – | – |
| CNC(=O)c1cc(Oc2ccc(NC(=O)Nc3cc(C(C)(C)C)nn3-c3ccc4ncccc4c3)c(F)c2)ccn1 [Rebastinib] | 0.473 | 0.907 | 0.707 | 9.94 | – | – | – |
| COc1cc(F)c(F)c(Nc2ccc(I)cc2F)c1NS(=O)(=O)C1(C[C@H](O)CO)CC1 [Refametinib] | -0.0333 | 0.663 | -0.02 | -1.26 | – | – | – |
| CNC(=O)c1cc(Oc2ccc(NC(=O)Nc3ccc(Cl)c(C(F)(F)F)c3)c(F)c2)ccn1 [Regorafenib] | 1.02 | 0.88 | 0.423 | 5.87 | – | – | – |
| COc1cc(OC)c(/C=C/S(=O)(=O)Cc2ccc(OC)c(NCC(=O)O)c2)c(OC)c1 [Rigosertib] | 0.19 | 0.583 | 0.203 | -0.48 | – | – | – |
| CN(C)C[C@@H]1CCn2cc(c3ccccc32)C2=C(C(=O)NC2=O)c2cn(c3ccccc23)CCO1 [Ruboxistaurin] | 5.19 | 1.86 | 9.4 | 1.03 | – | – | – |
| N#CC[C@H](C1CCCC1)n1cc(-c2ncnc3[nH]ccc23)cn1 [Ruxolitinib] | 6.18 | – | 8.65 | 2.88 | 5.233 | – | – |
| O=C(Nc1ccc2[nH]nc(-c3ccncc3)c2c1)[C@@H]1CCN(CC(=O)N2CCN(c3ccc(-c4ncccn4)cc3)CC2)C1 [SCH772984] | 0.0767 | 0.0567 | 0.9 | 0.343 | – | – | – |
| CN1CCC(CNc2ccc3ncc(-c4cccc(OC(F)(F)F)c4)n3n2)CC1 [SGI-1776] | 6.74 | 3.24 | 10.2 | 3.81 | – | – | – |
| CC(C)(C)c1cnc(CSc2cnc(NC(=O)C3CCNCC3)s2)o1 [SNS-032] | 0.69 | 3.53 | 1.11 | 0.0467 | – | – | – |
| Oc1c2ccccc2c2c3c(cccc13)N=N2 [SP600125] | 6.88 | 0.11 | 14.2 | 0.24 | – | – | – |
| CN1CCN(CCOc2cc(OC3CCOCC3)c3c(Nc4c(Cl)ccc5c4OCO5)ncnc3c2)CC1 [Saracatinib] | 0.31 | 0.66 | 4.59 | 7.95 | – | – | – |
| CC[C@H](CO)Nc1nc(NCc2ccccc2)c2ncn(C(C)C)c2n1 [Seliciclib] | 0.393 | 2.4 | 0.43 | -0.34 | – | – | – |
| Cn1cnc2c(F)c(Nc3ccc(Br)cc3Cl)c(C(=O)NOCCO)cc21 [Selumetinib] | 0.343 | 0.797 | 0.227 | -0.847 | – | – | – |
| C=CCN(/C=C1/C(=O)O[C@H](COC)[C@@]2(C)C1=C(O)C(=O)C1=C2[C@H](OC(C)=O)C[C@]2(C)C(=O)CC[C@@H]12)CC=C [Sonolisib] | -0.183 | 0.147 | -1.36 | 0.82 | – | – | – |

| Structure (SMILES) | ΔTm at 12.5 µM (AAK1) [°C] | ΔTm at 12.5 µM (MPSK1) [°C] | ΔTm at 12.5 µM (BIKE) [°C] | ΔTm at 12.5 µM (GAK) [°C] | MPSK1 (MPSK1; 12.5 µM) [°C] | AAK1 (AAK1; 12.5 µM) [°C] | GAK (GAK; 12.5 µM) [°C] |
| --- | --- | --- | --- | --- | --- | --- | --- |
| CNC(=O)c1cc(Oc2ccc(NC(=O)Nc3ccc(Cl)c(C(F)(F)F)c3)cc2)ccn1 [Sorafenib] | 1.03 | 0.873 | 0.73 | 5.42 | – | – | – |
| CN1CCN(c2nc(C3=C(c4c[nH]c5ccccc45)C(=O)NC3=O)c3ccccc3n2)CC1 [Sotrastaurin] | 1.63 | 1.8 | 3.16 | 0.62 | – | – | – |
| CCN(CC)CCNC(=O)c1c(C)[nH]c(/C=C2\C(=O)Nc3ccc(F)cc32)c1C [Sunitinib] | – | 6.79 | 13.9 | – | – | 8.67 | 4.647 |
| Cn1c(=O)c(F)c(Nc2ccc(I)cc2F)c2c(=O)n(C[C@@H](O)CO)cnc21 [TAK-733] | 0.0367 | 0.277 | 0.177 | -0.183 | – | – | – |
| CCS(=O)(=O)c1cccc(-c2cc(C(=O)NC3CCN(C)CC3)c(C)c3[nH]c4ncc(C)cc4c23)c1 [TAK-901] | 5.22 | 10.7 | 12 | 3.35 | – | – | – |
| Cc1cc(C(C)Nc2ccccc2)c2nc(N3CCOCC3)cc(=O)n2c1 (stereo not shown) [TGX-221] | 0.26 | 1.43 | 0.5 | -0.347 | – | – | – |
| COc1cc(Nc2ncc(F)c(Nc3ccc4c(n3)NC(=O)C(C)(C)O4)n2)cc(OC)c1OC [Tamatinib] | 7 | 14.1 | 6.55 | 3.48 | – | – | – |
| COc1cc2c(N3CCN(C(=O)Nc4ccc(OC(C)C)cc4)CC3)ncnc2cc1OCCCN1CCCCC1 [Tandutinib] | 0.57 | 1.21 | 1.76 | 0.06 | – | – | – |
| O=c1sn(-c2cccc3ccccc23)c(=O)n1Cc1ccccc1 [Tideglusib] | 0.24 | 0.443 | 0.245 | -0.487 | – | – | – |
| O=C1NC(=O)[C@@H](c2cn3c4c(cccc24)CCC3)[C@@H]1c1c[nH]c2ccccc12 [Tivantinib] | 0.46 | 0.87 | 0.697 | -0.823 | – | – | – |
| COc1cc2nccc(Oc3ccc(NC(=O)Nc4cc(C)on4)c(Cl)c3)c2cc1OC [Tivozanib] | 3.15 | 1.4 | 3.87 | 6.98 | – | – | – |
| C[C@@H]1CCN(C(=O)CC#N)C[C@@H]1N(C)c1ncnc2[nH]ccc12 [Tofacitinib] | 0.68 | 1.35 | 2.18 | -0.58 | – | – | – |
| CC(=O)Nc1cccc(-n2c(=O)n(C3CC3)c(=O)c3c(Nc4ccc(I)cc4F)n(C)c(=O)c(C)c32)c1 [Trametinib] | 0.367 | 0.827 | 0.423 | -0.66 | – | – | – |
| CN[C@@H]1C[C@H]2O[C@@](C)([C@@H]1OC)n1c3ccccc3c3c4c(c5c6ccccc6n2c5c31)C(=O)N[C@H]4O [UCN-01] | 9.91 | 4.49 | 13.1 | 4.03 | – | – | – |
| Cc1cnc(Nc2ccc(F)cc2Cl)nc1-c1c[nH]c(C(=O)N[C@H](CO)c2cccc(Cl)c2)c1 [VX-11E] | -0.203 | 0.627 | 0.147 | -1.45 | – | – | – |
| COc1cc2/c(=N/c3ccc(Br)cc3F)nc[nH]c2cc1OCC1CCN(C)CC1 [Vandetanib] | 1.05 | 1.1 | 0.127 | 1.75 | – | – | – |
| Clc1ccc(Nc2nnc(Cc3ccncc3)c3ccccc23)cc1 [Vatalanib] | 0.303 | 0.513 | 0.423 | 0.0567 | – | – | – |

Reference: paper PMC4780864, “Family-wide Structural Analysis of Human Numb-Associated Protein Kinases” (Structure(London, England:1993), 2016)
